According to patent publication US12528777B2, “Quinazolinones derivatives for treatment of non-alcoholic fatty liver disease, preparation and use thereof” (Council of Scientific and Industrial Research, priority 2020, dated 2026):
Entries after “also recorded” stand apart in the source; their conditions may differ.

Assays:
ATGL = assay: In vivo study: ATGL level in mouse liver; parameters: species or system C57BL/6 mice; settings: 30 mg/kg orally
Method: 6-8 weeks old healthy female C57BL/6 mice (average weight: 25 grams) were taken for the study. These were then divided into three groups comprising of three mice per group (Control, compound 107 fed for 8 hours and compound 107 fed for 16 hours). Mice were fed with 30 mg/kg of compound 107 orally. The compound was dissolved in 25% DMSO and 75% PBS. The control group was fed only with the solvent in which the compound was dissolved. Post 8 hours and 16 hours of feeding, mice were sacrificed and a portion of the excised liver tissue was homogenized in lysis buffer containing protease inhibitor cocktail. The homogenate was centrifuged at 20,000 g for 30 minutes following which the supernatant containing the protein lysate was collected. The lysate was then diluted accordingly and protein estimation was carried out by Bradford Assay. This was followed by Western Blotting wherein the levels of ATGL and COP1 were checked. Actin was used as the loading control.

COP1 = COP1 (Homo sapiens, UniProt Q8NHY2); assay: Western blot of COP1 level in HepG2 cells; format: cell-based; settings: 24 hours, dose dependent
Method: HepG2 cells were treated with the compounds 9, 10, 11, 17, 18, 23, 24, 115, 123, 127, 139,107, 171, 179, 73, 187, 211, 215, 219, 223, 232, 238, 241, 244, 258, 299, 308, and 333a, (10 μM for initial screening and 50 nM, 100 nM, 200 nM, 500 nM, 1 μM and 5 μM for dose dependent assays) for 24 hours. After removing media from the cells, the wells were washed with 1×PBS twice to remove any remnant media. Cells were then lysed in lysis buffer containing 50 mM Tris-HCl (pH 7.4), 100 mM NaCl, 1 mM EDTA, 1 mM EGTA, 1% Triton X-100 and protease inhibitor cocktail (Millipore, Billierica, MA, USA). Following centrifugation at 20,000 g for 20 minutes, the protein solution was extracted from the cells. Protein was estimated using Bradford assay. Bradford's reagent (BioRad) was diluted in 1:4 ratio in double distilled water. 2 μl of protein sample was added to 100 μl of the reagent and absorbance was measured at 595 nm. […] of protein was diluted in lysis buffer. 1× loading buffer diluted from 5× stock containing 250 mM Tris-HCl (pH 6.8), 10% SDS, 50% glycerol, 0.1% bromophenol Blue and 10% β-mercaptoethanol was added. The protein samples were then heated at 95° C. for 10 minutes, cooled and centrifuged at 12,000 g for 2 minutes prior to loading.
For western blotting, the proteins were resolved in 10% SDS PAGE (discontinuous buffer system). […]

Chain of COP1 (Q8NHY2 whole entry): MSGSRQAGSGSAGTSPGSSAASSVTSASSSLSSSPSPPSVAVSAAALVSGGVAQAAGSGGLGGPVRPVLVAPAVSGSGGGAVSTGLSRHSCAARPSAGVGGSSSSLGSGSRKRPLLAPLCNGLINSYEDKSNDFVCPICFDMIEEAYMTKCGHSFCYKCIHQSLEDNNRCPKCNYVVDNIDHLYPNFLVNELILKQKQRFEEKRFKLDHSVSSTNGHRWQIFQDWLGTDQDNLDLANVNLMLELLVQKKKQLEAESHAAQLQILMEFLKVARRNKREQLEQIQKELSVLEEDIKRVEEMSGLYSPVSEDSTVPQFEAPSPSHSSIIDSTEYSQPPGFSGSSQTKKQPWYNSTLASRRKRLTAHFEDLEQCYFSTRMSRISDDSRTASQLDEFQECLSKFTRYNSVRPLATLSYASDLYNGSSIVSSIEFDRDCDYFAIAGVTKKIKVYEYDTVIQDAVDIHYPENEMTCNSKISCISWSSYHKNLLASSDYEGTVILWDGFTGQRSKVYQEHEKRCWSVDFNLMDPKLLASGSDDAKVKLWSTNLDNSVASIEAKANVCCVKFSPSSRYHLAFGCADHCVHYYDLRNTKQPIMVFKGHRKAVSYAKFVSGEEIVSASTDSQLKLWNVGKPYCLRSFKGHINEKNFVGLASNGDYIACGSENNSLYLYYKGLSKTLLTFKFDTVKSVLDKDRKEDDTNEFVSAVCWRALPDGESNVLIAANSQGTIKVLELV

SMILES	ATGL level in liver, 8 hours after feeding (ATGL; 8 hours)	ATGL level in liver, 16 hours after feeding (ATGL; 16 hours)	COP1 level in HepG2 cells (COP1)
COCCn1c(C)nc2ccc(NC(=O)Nc3cccc(C(C)=O)c3)cc2c1=O [Compound 107, 1-(3-acetylphenyl)-3-(3-(2-methoxyethyl)-2-methyl-4-oxo-3,4-dihydroquinazolin-6-yl)urea]	modestly increase ATGL level; also recorded: no significant impact	modestly increase ATGL level; also recorded: effective in increasing ATGL and COP1 levels	
COCCn1c(CN2CCCCC2)nc2ccc(NC(=O)Nc3cccc(C(C)=O)c3)cc2c1=O [Compound 238, 1-(3-acetylphenyl)-3-(3-(2-methoxyethyl)-4-oxo-2-(piperidin-1-ylmethyl)-3,4-dihydroquinazolin-6-yl)urea]			most potent in increasing ATGL and COP1 levels; also recorded: increase in ATGL and COP1 levels
